The values that follow come from patent US20210068395A1, “METHODS OF APPLYING ONE OR MORE CERTAIN HETEROARYL-1,2,4-TRIAZOLE AND HETEROARYL-TETRAZOLE COMPOUNDS TO CONTROL DAMAGE ON PLANTS, PROPAGATION MATERIAL THEREOF, AND PLANT DERIVED PRODUCTS” (SYNGENTA CROP PROTECTION AG, priority 2018, published 2021).

What all share (assay type): in vivo
In experiment [1] the test system is Diabrotica balteata (corn root worm). Kind of experiment: Diabrotica balteata (corn root worm), sprayed maize sprouts. The note with it: 96 h, application rate 200 ppm, L2 larvae, 4 days after infestation, read-out: control in at least one of the two categories (mortality or growth inhibition). As for the experimental part: Maize sprouts placed onto an agar layer in 24-well microtiter plates were treated with aqueous test solutions prepared from 10,000 ppm DMSO stock solutions by spraying. After drying, the plates were infested with L2 larvae (6 to 8 per well). The samples were assessed for mortality and growth inhibition in comparison to untreated samples 4 days after infestation.

Experiment [2] deals with Euschistus heros (Neotropical Brown Stink Bug). Description: Euschistus heros feeding/contact activity. The note with it: 120 h, application rate 200 ppm, N2 nymphs on soybean leaves, 5 days after infestation, read-out: control in at least one of the two categories (mortality or growth inhibition). On the procedure: Soybean leaves on agar in 24-well microtiter plates were sprayed with aqueous test solutions prepared from 10,000 ppm DMSO stock solutions. After drying the leaves were infested with N2 nymphs. The samples were assessed for mortality and growth inhibition 5 days after infestation.

The subject of experiment [3] is Frankliniella occidentalis (Western Flower Thrips). Kind of experiment: Frankliniella occidentalis feeding/contact activity. The settings on record: foliar, 168 h, application rate 200 ppm, mixed ages on sunflower leaf discs, 7 days after infestation. On the procedure:
Sunflower leaf discs were placed on agar in 24-well microtiter plates and sprayed with aqueous test solutions prepared from 10,000 DMSO stock solutions. After drying the leaf discs were infested with a Frankliniella population of mixed ages. The samples were assessed for mortality 7 days after infestation.

Experiment [4] has as its system Myzus persicae (Green Peach Aphid). Description: Myzus persicae feeding/contact activity. The note with it: foliar, 144 h, application rate 200 ppm, sunflower leaf discs sprayed, 6 days after infestation. On the procedure: Sunflower leaf discs were placed onto agar in a 24-well microtiter plate and sprayed with aqueous test solutions prepared from 10,000 ppm DMSO stock solutions. After drying, the leaf discs were infested with an aphid population of mixed ages. The samples were assessed for mortality 6 days after infestation.

For experiment [5] the test system is unchanged. Kind of experiment: Myzus persicae systemic activity. The settings on record: 144 h, test rate 24 ppm, roots of pea seedlings in test solution, 6 days. On the procedure:
Roots of pea seedlings infested with an aphid population of mixed ages were placed directly into aqueous test solutions prepared from 10,000 DMSO stock solutions. The samples were assessed for mortality 6 days after placing seedlings into test solutions.

Experiment [6] has the same test system. Description: Myzus persicae feeding activity (sucrose solution, Parafilm). The settings on record: 120 h, test rate 12.5 ppm, in sucrose solution, 5 days after infestation. On the procedure: Test compounds prepared from 10,000 ppm DMSO stock solutions were applied by pipette into 24-well microtiter plates and mixed with sucrose solution. The plates were closed with a stretched Parafilm. A plastic stencil with 24 holes was placed onto the plate and infested pea seedlings were placed directly on the Parafilm. The infested plate was closed with a gel blotting paper and another plastic stencil and then turned upside down. The samples were assessed for mortality 5 days after infestation.

The test system of experiment [7] is Plutella xylostella (Diamond Back Moth). Description: Plutella xylostella feeding/contact activity, 96-well artificial diet. The note with it: 216 h, application rate 500 ppm, 9 days after infestation. As for the experimental part:
1, 2, 3, 4, 17, 19, 23, 26, 39, 41, 42, 54, 55, 56 Plutella xylostella (Diamond Back Moth):Feeding/Contact Activity 96-well microtiter plates containing artificial diet were treated with aqueous test solutions, prepared from 10,000 ppm DMSO stock solutions, by a liquid handling robot. After drying, eggs (˜30 per well) were infested onto a netted lid which was suspended above the diet. The eggs hatch and L1 larvae move down to the diet. The samples were assessed for mortality 9 days after infestation.

For experiment [8], the system named is Spodoptera littoralis (Egyptian Cotton Leaf Worm). Kind of experiment: Spodoptera littoralis feeding/contact activity. The settings on record: foliar, 72 h, application rate 200 ppm, L1 larvae on cotton leaf discs, 3 days after infestation, read-out: control in at least one of the three categories (mortality or growth inhibition or anti-feeding). As for the experimental part: Cotton leaf discs were placed onto agar in 24-well microtiter plates and sprayed with aqueous test solutions prepared from 10,000 ppm DMSO stock solutions. After drying the leaf discs were infested with five L1 larvae. The samples were assessed for mortality, anti-feeding and growth inhibition 3 days after infestation.

Experiment [9] relates to Thrips tabaci (Onion thrips). Description: Thrips tabaci feeding/contact activity. The note with it: foliar, 144 h, application rate 200 ppm, sunflower leaf discs, 6 days after infestation, read-out: control in at least one of the two categories (mortality or anti-feeding). On the procedure:
Sunflower leaf discs were placed on agar in 24-well microtiter plates and sprayed with aqueous test solutions prepared from 10,000 ppm DMSO stock solutions. After drying the leaf discs were infested with a thrips population of mixed ages. The samples were assessed for mortality, and anti-feeding 6 days after infestation.

Experiment [10] relates to Aphis craccivora (Black Bean Aphid). Kind of experiment: Aphis craccivora mixed population, contact/feeding. The settings on record: 120 h, test rate 200 ppm, pea seedlings sprayed, 5 days after treatment. As for the experimental part: Pea seedlings infested with mixed aged aphid population were treated with diluted test solutions in a spray chamber. 5 days after treatment, samples were assessed for mortality.

For experiment [11] the test system is unchanged. Description: Aphis craccivora mixed population, systemic/feeding. The note with it: 120 h, test rate 12.5 ppm, pea seedlings in test solutions, 5 days. On the procedure:
Pea seedlings infested with mixed aged aphid population, were put into glass vials with test solutions. 5 days later, samples were assessed for mortality.

Experiment [12] has as its system Carpocapsa (Cydia) Pomonella (Codling Moth). Kind of experiment: Carpocapsa (Cydia) pomonella larvicide, feeding/contact. The settings on record: 336 h, test rate 50 ppm, L1 larvae on diet cubes, 14 days after infestation, read-out: control in at least one of the two categories (mortality or growth inhibition). On the procedure:
Diet cubes coated with paraffin were sprayed with diluted test solutions in an application chamber. After drying off the treated cubes (10 replicates) were infested with 1 L1 larvae. Samples were incubated at 26-27° C. and checked 14 days after infestation for mortality and growth inhibition.

Experiment [13] has as its system Chrysodeixis includens (Soybean Looper). Description: Chrysodeixis includens larvicide, feeding/contact. The note with it: 120 h, test rate 50 ppm, L2 larvae on soybean leaves, 5 days after infestation, read-out: control in at least one of the two categories (mortality or growth inhibition). As for the experimental part: Soybean plants were treated in a spray chamber, cut off and placed into petri dishes containing wet filter paper. 1 d after application leaves were infested with 5 L2 larvae and covered with a fabric filter and plastic lids. 5 days after infestation the samples were assessed for mortality and growth inhibition.

Experiment [14] deals with Nilaparvata lugens (Brown Plant Hopper). Description: Nilaparvata lugens larvicide, feeding/contact. The settings on record: 168 h, test rate 200 ppm, N3 nymphs on sprayed rice plants, 7 days after treatment, read-out: control in at least one of the two categories (mortality or growth inhibition). On the procedure: Rice plants were treated with the diluted test solutions in a spray chamber. After drying plants were infested with ˜20 N3 nymphs. 7 days after the treatment samples were assessed for mortality and growth inhibition.

Experiment [15] shares this test system. Description: Nilaparvata lugens larvicide, systemic into water. The settings on record: 168 h, test rate 12.5 ppm, into nutritive solution of rice plants, N3 nymphs, 7 days after infestation, read-out: control in at least one of the two categories (mortality or growth inhibition). On the procedure:
Rice plants cultivated in a nutritive solution were treated with the diluted test solutions into nourishing cultivation system. 1 day after application plants were infested with ˜20 N3 nymphs. 7 days after infestation samples were assessed for mortality and growth inhibition.

For experiment [16], the system named is Chilo suppressalis (Striped Stem Borer). Kind of experiment: Chilo suppressalis larvicide, feeding/contact. The note with it: 120 h, test rate 200 ppm, L2 larvae on sprayed rice plants, 5 days after application. As for the experimental part:
Rice plants were treated in a spray chamber, cut off and placed into petri dishes containing wet filter paper. 10 L2 larvae were infested and covered up with a cotton filter and a lid. 5 days after application samples were assessed for mortality.

For experiment [17], the system named is Aedes aegypti (Yellow Fever Mosquito). Description: whole plant or invertebrate. The settings on record: test rate 200 ppm, adult females, mortality assessed at 24 and 48 hours. On the procedure:
Test solutions, at an application rate of 200 ppm in ethanol, were applied to 12 well tissue culture plates. Once the deposits were dry, five, two to five day old adult female Aedes aegypti were added to each well, and sustained with a 10% sucrose solution in a cotton wool plug. Assessment of knockdown was made one hour after introduction, and mortality was assessed at 24 and 48 hours after introduction.

For experiment [18], the system named is Anopheles stephensi (Indian Malaria Mosquito). Kind of experiment: Anopheles stephensi adult contact on treated plates. The note with it: test rate 200 ppm, adult females, mortality assessed at 24 and 48 hours. As for the experimental part: Test solutions, at an application rate of 200 ppm in ethanol, were applied to 12 well tissue culture plates. Once the deposits were dry, five, two to five day old adult female Anopheles stephensi were added to each well, and sustained with a 10% sucrose solution in a cotton wool plug. Assessment of knockdown was made one hour after introduction, and mortality was assessed at 24 and 48 hours after introduction.

Molecules are shown by their SMILES.

Usually mortality stands for the percentage killed. Higher therefore signals fewer survivors.

As to `C#CCN(C(=O)c1cc(C(F)(F)F)cc(C(F)(F)F)c1)C(C)c1ncnn1-c1ncccn1` (stereo not drawn) [Compound 2], the percent control (mortality or growth inhibition) at 200 ppm in experiment [1], in experiment [2] and in experiment [14] was ≥ 80% throughout. Besides, the mortality at 200 ppm was ≥ 80% in [3]; ≥ 80% in experiment [4]; ≥ 80% in [10]; ≥ 80% in experiment [16]; ≥ 60% in experiment [17]; ≥ 60% in experiment [18]. Besides, the mortality at 24 ppm in experiment [5] is ≥ 80%. In addition, the mortality at 12.5 ppm in experiment [6] and in [11] was ≥ 80% throughout. Moreover, in experiment [7], the mortality at 500 ppm is ≥ 80%. Further, the percent control (mortality, anti-feedant effect or growth inhibition) at 200 ppm in experiment [8] and in [9] was ≥ 80% in each case. In addition, the percent control (mortality or growth inhibition) at 50 ppm in experiment [12] and in [13] was ≥ 80% throughout. Moreover, the percent control (mortality or growth inhibition) at 12.5 ppm in [15] is ≥ 80%.
